One test addresses AR / CBP ternary complex (Homo sapiens, UniProt P10275+Q92793). Description: Ternary complex formation assay (sandwich ELISA, AR capture, CBP antibody detection) in VCaP cell lysates. It is filed as cell-based. As to conditions: treated 1.5 hours, rabbit CBP or p300 antibody detection, average, read-out: Average Ternary Complex. The procedure, abridged:
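Sandwich ELISA: plates were coated with anti-AR antibody (AR441) and given lysates of VCaP cells treated 1.5 h with bifunctional compound in charcoal-stripped serum. Co-captured CBP or p300 was probed with rabbit mAbs and HRP secondary. Chemifluorescent signal (ex 570/em 585) was read at 0, 5 and 15 min.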
On the technique in general: In an ELISA, binding on a coated surface is turned into a signal by an enzyme label.

The subject of the next test is VCaP cells. Description: VCaP growth inhibition assay (CTG). It is filed as cell-based. As to conditions: Homo sapiens, 216 h, 30 pM R1881, 9 days. The procedure, abridged:
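Growth was measured by CTG luminescence after a 9-day exposure of VCaP cells to compound (final 10 fM–100 nM, fivefold steps) in the presence of 30 pM final R1881, in phenol red-free DMEM/5% CSS. IC50 values were derived by nonlinear 4-parameter regression of RLU against concentration.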

Structures are written as SMILES.

Chain of AR / CBP ternary complex (P10275 whole entry): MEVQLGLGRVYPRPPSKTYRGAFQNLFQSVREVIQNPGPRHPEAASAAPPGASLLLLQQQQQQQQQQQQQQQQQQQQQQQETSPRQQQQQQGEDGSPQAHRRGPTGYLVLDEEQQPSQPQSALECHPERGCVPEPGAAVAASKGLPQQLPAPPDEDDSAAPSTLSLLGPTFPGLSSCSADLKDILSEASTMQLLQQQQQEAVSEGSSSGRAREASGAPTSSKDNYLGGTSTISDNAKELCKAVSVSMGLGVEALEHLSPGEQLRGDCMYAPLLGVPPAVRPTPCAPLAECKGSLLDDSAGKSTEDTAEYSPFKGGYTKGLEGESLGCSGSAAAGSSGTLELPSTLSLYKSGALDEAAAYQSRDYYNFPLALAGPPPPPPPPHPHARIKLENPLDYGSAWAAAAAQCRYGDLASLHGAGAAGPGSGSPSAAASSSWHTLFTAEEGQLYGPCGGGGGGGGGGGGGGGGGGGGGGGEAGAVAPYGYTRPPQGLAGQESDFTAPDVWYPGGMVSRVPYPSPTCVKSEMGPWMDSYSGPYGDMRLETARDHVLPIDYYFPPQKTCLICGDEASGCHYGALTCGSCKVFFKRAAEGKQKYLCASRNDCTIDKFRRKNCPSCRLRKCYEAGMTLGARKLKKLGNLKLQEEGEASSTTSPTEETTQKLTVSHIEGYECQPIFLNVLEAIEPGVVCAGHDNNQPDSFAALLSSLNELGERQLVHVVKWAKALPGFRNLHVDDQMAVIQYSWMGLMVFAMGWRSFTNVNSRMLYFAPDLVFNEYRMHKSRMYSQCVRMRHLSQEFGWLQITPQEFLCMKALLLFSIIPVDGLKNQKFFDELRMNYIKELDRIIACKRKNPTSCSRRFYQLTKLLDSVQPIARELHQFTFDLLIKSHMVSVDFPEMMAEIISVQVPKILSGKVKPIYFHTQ
Chain of AR / CBP ternary complex (Q92793 2-2442): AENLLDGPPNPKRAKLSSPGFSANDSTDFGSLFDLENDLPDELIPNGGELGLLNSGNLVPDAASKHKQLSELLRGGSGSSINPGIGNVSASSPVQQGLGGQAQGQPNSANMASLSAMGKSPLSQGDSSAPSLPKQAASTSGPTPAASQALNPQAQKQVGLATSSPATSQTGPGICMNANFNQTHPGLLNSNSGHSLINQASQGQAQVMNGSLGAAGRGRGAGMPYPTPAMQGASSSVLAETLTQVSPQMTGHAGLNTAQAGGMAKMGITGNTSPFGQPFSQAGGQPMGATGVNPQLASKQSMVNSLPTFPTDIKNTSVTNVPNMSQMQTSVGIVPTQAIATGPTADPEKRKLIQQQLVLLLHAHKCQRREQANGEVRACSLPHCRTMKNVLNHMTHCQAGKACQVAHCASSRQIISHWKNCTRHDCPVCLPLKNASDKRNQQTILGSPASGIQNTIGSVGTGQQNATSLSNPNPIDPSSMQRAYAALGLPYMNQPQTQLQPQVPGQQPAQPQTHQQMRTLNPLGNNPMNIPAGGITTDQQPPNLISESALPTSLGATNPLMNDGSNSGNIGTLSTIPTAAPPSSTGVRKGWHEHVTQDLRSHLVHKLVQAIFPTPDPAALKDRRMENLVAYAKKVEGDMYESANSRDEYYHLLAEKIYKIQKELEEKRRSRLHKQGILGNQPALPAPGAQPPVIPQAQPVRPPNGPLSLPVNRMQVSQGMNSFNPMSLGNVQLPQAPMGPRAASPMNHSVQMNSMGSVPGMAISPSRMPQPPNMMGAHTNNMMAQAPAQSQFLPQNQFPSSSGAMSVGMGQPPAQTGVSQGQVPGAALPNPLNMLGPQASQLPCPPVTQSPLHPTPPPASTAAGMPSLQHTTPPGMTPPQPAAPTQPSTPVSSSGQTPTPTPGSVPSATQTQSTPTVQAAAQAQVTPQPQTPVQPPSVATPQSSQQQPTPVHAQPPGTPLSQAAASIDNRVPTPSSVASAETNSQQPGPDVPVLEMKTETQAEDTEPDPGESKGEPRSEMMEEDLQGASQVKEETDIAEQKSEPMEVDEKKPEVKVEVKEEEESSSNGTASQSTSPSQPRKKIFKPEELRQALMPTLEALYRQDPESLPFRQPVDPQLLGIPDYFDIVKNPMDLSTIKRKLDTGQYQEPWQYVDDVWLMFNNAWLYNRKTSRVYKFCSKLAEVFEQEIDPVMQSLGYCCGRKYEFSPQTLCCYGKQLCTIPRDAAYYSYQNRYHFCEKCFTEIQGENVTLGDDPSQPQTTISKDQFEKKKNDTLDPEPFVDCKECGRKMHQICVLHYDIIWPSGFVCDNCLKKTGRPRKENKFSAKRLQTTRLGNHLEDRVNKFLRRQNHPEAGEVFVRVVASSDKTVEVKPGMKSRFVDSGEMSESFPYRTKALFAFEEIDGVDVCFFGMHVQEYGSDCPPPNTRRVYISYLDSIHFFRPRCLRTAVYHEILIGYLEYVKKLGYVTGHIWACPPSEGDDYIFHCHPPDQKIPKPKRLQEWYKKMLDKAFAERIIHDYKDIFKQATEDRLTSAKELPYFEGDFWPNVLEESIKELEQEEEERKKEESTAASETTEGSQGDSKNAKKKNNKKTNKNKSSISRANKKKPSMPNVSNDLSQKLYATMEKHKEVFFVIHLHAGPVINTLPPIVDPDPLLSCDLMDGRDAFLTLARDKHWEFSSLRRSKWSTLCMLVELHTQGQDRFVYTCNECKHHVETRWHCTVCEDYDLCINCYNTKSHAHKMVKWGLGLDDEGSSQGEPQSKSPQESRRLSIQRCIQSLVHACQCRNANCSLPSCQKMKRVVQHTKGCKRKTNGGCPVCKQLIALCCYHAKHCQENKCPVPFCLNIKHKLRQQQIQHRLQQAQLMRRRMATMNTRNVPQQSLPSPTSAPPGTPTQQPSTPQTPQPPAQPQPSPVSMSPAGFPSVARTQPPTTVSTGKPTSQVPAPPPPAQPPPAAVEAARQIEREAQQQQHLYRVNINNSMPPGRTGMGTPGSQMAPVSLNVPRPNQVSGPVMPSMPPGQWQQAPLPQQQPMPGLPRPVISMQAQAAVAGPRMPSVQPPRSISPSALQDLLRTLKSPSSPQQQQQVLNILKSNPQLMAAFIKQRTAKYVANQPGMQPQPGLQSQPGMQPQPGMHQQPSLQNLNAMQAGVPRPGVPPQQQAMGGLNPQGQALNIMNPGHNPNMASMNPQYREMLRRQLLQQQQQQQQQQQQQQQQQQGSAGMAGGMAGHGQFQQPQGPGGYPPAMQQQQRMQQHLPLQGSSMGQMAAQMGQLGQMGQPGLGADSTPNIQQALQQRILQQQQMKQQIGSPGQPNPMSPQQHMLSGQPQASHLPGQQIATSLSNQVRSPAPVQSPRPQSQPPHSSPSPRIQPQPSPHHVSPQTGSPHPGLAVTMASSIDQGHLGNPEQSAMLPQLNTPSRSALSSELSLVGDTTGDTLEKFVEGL

Take `CC(=O)N1CCc2c(c(N3CCCc4cc(-c5ccc(CCC6CCN(c7ccc(C(=O)N[C@H]8CC[C@H](Oc9ccc(C#N)c(Cl)c9)CC8)nn7)CC6)cc5)ncc43)nn2C2CCOCC2)C1` [Compound 156, 6-[4-[2-[4-[1-(5-acetyl-1-tetrahydropyran-4-yl-6,7-dihydro-4H-pyrazolo[4,3-c]pyridin-3-yl)-3,4-dihydro-2H-1,7-naphthyridin-6-yl]phenyl]ethyl]-1-piperidyl]-N-[4-(3-chloro-4-cyano-phenoxy)cyclohexyl]pyridazine-3-carboxamide]: the EC50 at AR / CBP ternary complex was in the range of 1 to 10 nM. In addition, the IC50 (commonly the concentration at which inhibition is half-maximal) in the test with VCaP cells was in the range of 1 to 100 nM.

Consider `CC(=O)N1CCc2c(c(N3CCCc4cc(-c5ccc(CCN6CCN(c7ccc(C(=O)N[C@H]8CC[C@H](Oc9ccc(C#N)c(Cl)c9)CC8)nn7)CC6)cc5)ncc43)nn2C2CCOCC2)C1` [Compound 157, 6-[4-[2-[4-[1-(5-acetyl-1-tetrahydropyran-4-yl-6,7-dihydro-4H-pyrazolo[4,3-c]pyridin-3-yl)-3,4-dihydro-2H-1,7-naphthyridin-6-yl]phenyl]ethyl]piperazin-1-yl]-N-[4-(3-chloro-4-cyano-phenoxy)cyclohexyl]pyridazine-3-carboxamide], for which the EC50 at AR / CBP ternary complex was under 1 nM. Also, the IC50 in the test on VCaP cells is 0.1 to 1 nM.

As for `CC(=O)N1CCc2c(c(N3CCCc4cc(-c5cnn(C)c5)c(C(F)F)cc43)nn2C2CCN(C(=O)C3CCN(c4ccc(C(=O)N[C@H]5CC[C@H](Oc6ccc(C#N)c(Cl)c6)CC5)cn4)CC3)CC2)C1` [Compound 158, 6-[4-[4-[5-acetyl-3-[7-(difluoromethyl)-6-(1-methylpyrazol-4-yl)-3,4-dihydro-2H-quinolin-1-yl]-6,7-dihydro-4H-pyrazolo[4,3-c]pyridin-1-yl]piperidine-1-carbonyl]-1-piperidyl]-N-[4-(3-chloro-4-cyano-phenoxy)cyclohexyl]pyridine-3-carboxamide], at AR / CBP ternary complex, the EC50 was in the range of 1 to 10 nM. In the test with VCaP cells, this compound gave an IC50 of 0.1 to 1 nM.

For the compound `CC(=O)N1CCc2c(c(N3CCCc4cc(-c5cnn(C)c5)c(C(F)F)cc43)nn2C2CCN(C(=O)C3CCN(c4ccc(C(=O)N[C@H]5CC[C@H](Oc6ccc(C#N)c(Cl)c6)CC5)cc4)CC3)CC2)C1` [Compound 159, 4-[4-[4-[5-acetyl-3-[7-(difluoromethyl)-6-(1-methylpyrazol-4-yl)-3,4-dihydro-2H-quinolin-1-yl]-6,7-dihydro-4H-pyrazolo[4,3-c]pyridin-1-yl]piperidine-1-carbonyl]-1-piperidyl]-N-[4-(3-chloro-4-cyano-phenoxy)cyclohexyl]benzamide], the EC50 at AR / CBP ternary complex is under 1 nM. The compound further displayed an IC50 in the test with VCaP cells of at most 0.1 nM.

As for `COc1cc(O[C@H]2CC[C@H](NC(=O)c3ccc(N4CCC(C(=O)N5CCC(n6nc(N7CCCc8cc(-c9cnn(C)c9)c(C(F)F)cc87)c7c6CCN(C(C)=O)C7)CC5)CC4)cc3)CC2)ccc1C#N` [Compound 160, 4-[4-[4-[5-acetyl-3-[7-(difluoromethyl)-6-(1-methylpyrazol-4-yl)-3,4-dihydro-2H-quinolin-1-yl]-6,7-dihydro-4H-pyrazolo[4,3-c]pyridin-1-yl]piperidine-1-carbonyl]-1-piperidyl]-N-[4-(4-cyano-3-methoxy-phenoxy)cyclohexyl]benzamide], the EC50 on AR / CBP ternary complex was under 1 nM. Besides, the IC50 in the test with VCaP cells is at most 0.1 nM.

In the case of `CC(=O)N1CCc2c(c(-c3cccc4cc(-c5cnn(C)c5)ncc34)nn2C2CCN(CC3CCN(c4ccc(C(=O)N[C@H]5CC[C@H](Oc6ccc(C#N)c(Cl)c6)CC5)cn4)CC3)CC2)C1` [Compound 161, 6-[4-[[4-[5-acetyl-3-[3-(1-methylpyrazol-4-yl)-8-isoquinolyl]-6,7-dihydro-4H-pyrazolo[4,3-c]pyridin-1-yl]-1-piperidyl]methyl]-1-piperidyl]-N-[4-(3-chloro-4-cyano-phenoxy)cyclohexyl]pyridine-3-carboxamide], the EC50 on AR / CBP ternary complex is under 1 nM. In the test with VCaP cells, the IC50 is at most 0.1 nM.

`CC(=O)N1CCc2c(c(-c3cccc4cc(-c5cnn(C)c5)ncc34)nn2C2CCN(CC3CCN(c4ccc(C(=O)N[C@H]5CC[C@H](Oc6ccc(C#N)c(Cl)c6)CC5)cc4)CC3)CC2)C1` [Compound 162, 4-[4-[[4-[5-acetyl-3-[3-(1-methylpyrazol-4-yl)-8-isoquinolyl]-6,7-dihydro-4H-pyrazolo[4,3-c]pyridin-1-yl]-1-piperidyl]methyl]-1-piperidyl]-N-[4-(3-chloro-4-cyano-phenoxy)cyclohexyl]benzamide]: the EC50 on AR / CBP ternary complex lay in the range of 1 to 10 nM. The same compound gave an IC50 in the test with VCaP cells of 0.1 to 1 nM.

For the compound `COc1cc(O[C@H]2CC[C@H](NC(=O)c3ccc(N4CCC(CN5CCC(n6nc(-c7cccc8cc(-c9cnn(C)c9)ncc78)c7c6CCN(C(C)=O)C7)CC5)CC4)cc3)CC2)ccc1C#N` [Compound 163, 4-[4-[[4-[5-acetyl-3-[3-(1-methylpyrazol-4-yl)-8-isoquinolyl]-6,7-dihydro-4H-pyrazolo[4,3-c]pyridin-1-yl]-1-piperidyl]methyl]-1-piperidyl]-N-[4-(4-cyano-3-methoxy-phenoxy)cyclohexyl]benzamide], the EC50 on AR / CBP ternary complex was under 1 nM. For the same compound, the IC50 in the test with VCaP cells is at most 0.1 nM.

For `CC(=O)N1CCc2c(c(-c3cccc4cc(-c5cnn(C)c5)ncc34)nn2C2CCN(C(=O)C3CCN(c4ccc(C(=O)N[C@H]5CC[C@H](Oc6ccc(C#N)c(Cl)c6)CC5)cc4)CC3)CC2)C1` [Compound 164, 4-[4-[4-[5-acetyl-3-[3-(1-methylpyrazol-4-yl)-8-isoquinolyl]-6,7-dihydro-4H-pyrazolo[4,3-c]pyridin-1-yl]piperidine-1-carbonyl]-1-piperidyl]-N-[4-(3-chloro-4-cyano-phenoxy)cyclohexyl]benzamide], the EC50 on AR / CBP ternary complex is under 1 nM. In addition, the IC50 in the test on VCaP cells is 0.1 to 1 nM.

`CC(=O)N1CCc2c(c(-c3cccc4cc(-c5ccc(CCC6CCN(c7ccc(C(=O)N[C@H]8CC[C@H](Oc9ccc(C#N)c(Cl)c9)CC8)cn7)CC6)nc5)ncc34)nn2C2CCOCC2)C1` [Compound 165]: at AR / CBP ternary complex, the EC50 is under 1 nM. In addition, the IC50 with VCaP cells is 0.1 to 1 nM.

Turning to `CC(=O)N1CCc2c(c(-c3cccc4cc(-c5ccc(CCC6CCN(c7ccc(C(=O)N[C@H]8CC[C@H](Oc9ccc(C#N)c(Cl)c9)CC8)cn7)CC6)cc5)ncc34)nn2C2CCOCC2)C1` [Compound 166, 6-[4-[2-[4-[8-(5-acetyl-1-tetrahydropyran-4-yl-6,7-dihydro-4H-pyrazolo[4,3-c]pyridin-3-yl)-3-isoquinolyl]phenyl]ethyl]-1-piperidyl]-N-[4-(3-chloro-4-cyano-phenoxy)cyclohexyl]pyridine-3-carboxamide], the EC50 on AR / CBP ternary complex is under 1 nM. In the test with VCaP cells, this compound displayed an IC50 of 0.1 to 1 nM.

For the compound `CC(=O)N1CCc2c(c(N3CCCc4cc(-c5ccc(CCC6CCN(c7ccc(C(=O)N[C@H]8CC[C@H](Oc9ccc(C#N)c(Cl)c9)CC8)cn7)CC6)cc5)c(C(F)F)cc43)nn2C2CCOCC2)C1` [Compound 168, 6-[4-[2-[4-[1-(5-acetyl-1-tetrahydropyran-4-yl-6,7-dihydro-4H-pyrazolo[4,3-c]pyridin-3-yl)-7-(difluoromethyl)-3,4-dihydro-2H-quinolin-6-yl]phenyl]ethyl]-1-piperidyl]-N-[4-(3-chloro-4-cyano-phenoxy)cyclohexyl]pyridine-3-carboxamide], on AR / CBP ternary complex, the EC50 lay in the range of 10 to 100 nM. This compound showed a half-maximal inhibitory concentration (IC50) in the test on VCaP cells of at most 0.1 nM.

Source of the values: patent publication US20250136578A1 (Kolm Therapeutics Inc., priority 2023, published 2025).
